In patent US4735943A, “Eburnamonine oxime derivatives, salts thereof, and pharmaceutical agents containing the same” (Sanwa Kagaku Kenkyusho Co., Ltd., priority 1984, dated 1988):

How the values were obtained:
[1] = tested on: erythrocyte deformability; assay: Acceleration on Erythrocyte Deformability (filtration-pressure method); type: in vivo, Wister male rats; conditions: rats, 10 mg/kg oral, blood 1 h after administration, 0.1% erythrocyte suspension
Description: (Acceleration on Erythrocyte Deformability) Each of testing compounds was orally administered to an amount of 10 mg/kg to Wister male rats (about 250 g, 5 animals/group). After one hour from the administration, blood sample was collected to prepare 0.1% erythrocyte suspension. An action of the compound to an erythrocyte deformability was studied in accordance with a filtration-pressure method to obtain results as shown in following Table 5.

d,d-mice = assay: Cerebral Function Protection (recovery after rod dropped on vertex); type: in vivo, male; conditions: 10 mg/kg oral, 30 min before, negative values given as "not effective"
Description: (Cerebral Function Protection) To each of male d,d-mice (16-24 g, 6 to 24 animals/group), each of testing compounds was orally administered in an amount of 10 mg/kg. After 30 minutes from the administration, a cylindrical rod made of bakelite (diameter: 1 cm, weight: 36 g) was free dropped with a level height of 40 cm on a vertex of the mouse to hypnotize the same, in accordance with a method disclosed by […] et al ["Tyaku-no-Ayumi (The Progress in Medicines)", 104 (4), 253, 1978]. Observations were continued until a recovering reflex from the lethargy and a spontaneous motion appear to determine a reduction ratio of time period on such behavior appearances.

[2] = tested on: collagen aggregation of platelets; assay: Depression on Blood Platelet Aggregation, collagen; type: cell-based, Wister male rat; conditions: in vitro, rat platelet plasma, read-out: depression Ratio to Collagen; for inhibition at 10 µg/mL: final conc. 10 μg/ml
Excerpt: (§1) (Depression on Blood Platelet Aggregation) With use of a blood-plasma with excess platelets (obtained from a Wister male rat, about 250 g), a depressing effect of each testing compound to ADP and collagen aggregations was studied in vitro (3 to 5 samples/group).Results are shown in following Table 4.

in vivo = conditions: mouse, male mice, oral, mortality after 72 hours
[3] = tested on: blood flow in vertebral artery; assay: Cerebral Blood Flow Increase (blood flow in vertebral artery, electromagnetic rheometer); type: in vivo; conditions: anesthetized mongrel dogs, 1.0 mg/dog into vertebral artery
Description: (Cerebral Blood Flow Increase) Male and female mongrel dogs anesthetized with nembutal (sodium pentobarbital) were employed as subject and a blood flow in vertebral artery of those animals were measured with use of an electromagnetic rheometer. Each of testing compounds was administered to vertebral artery in a ratio of 1.0 mg/dog to determine a change in blood flow in the vertebral artery.

[4] = tested on: ADP aggregation of platelets; assay: Depression on Blood Platelet Aggregation, ADP; type: cell-based, Wister male rat; conditions: in vitro, rat platelet plasma, read-out: depression Ratio to ADP; for inhibition at 10 µg/mL: final conc. 10 μg/ml, negative values given as "not effective"
Excerpt: as §1

[5] = tested on: brain of rats with an essential hypertension (SHR); assay: Cerebral Metabolic Activation (cerebral ischemia by ligation of both common carotid arteries); type: in vivo, male); conditions: 10 mg/kg oral 1 h after ligation, measured 5 h after ligation
Description: (Cerebral Metabolic Activation) According to a known method [Fujishima et al, "Rinshou-to-Kenkyu (The Clinics and Studies)" 51, 3532, 1974], both common carotid arteries of rats with an essential hypertension (SHR, male, 250-350 g, 4 to 5 animals/group) were ligated to cause a cerebral ischemia. After one hour from the ligation, each of testing compounds was orally administered in an amount of 10 mg/kg and various parameters in brain were measured at the time having lapsed 5 hours from the ligation.

For `CCN(CC)CCON=C1C[C@]2(CC)CCCN3CCc4c(n1c1ccccc41)[C@@H]32` [Example 2, (3α,16α)-eburnamenin-14(15H)-one O-[2-(N,N-diethylamino)ethyl]oxime], the “Reduction Rate in Filtering Pressure” value [1] was 6.0%, the “Reduction ratio, time to appear spontaneous motion” value (d,d-mice) was 48.7% and the “Reduction ratio, time to recover sit-up reflex” value (d,d-mice) was 54.3%. For the same compound, the inhibition at 2 µg/mL ([2]; final conc. 2 μg/ml) was 73.8%, the LD50 at 72 h (in vivo) was 611 mg/kg and the “Increase in Blood Flow” value [3] was 269.5%. For the same compound, the inhibition at 2 µg/mL ([4]; final conc. 2 μg/ml) was 5.7%, the “Amount of ATP in brain” value [5] was 0.36 µmol/g and the Amount of Glucose in brain [5] was 1030 nmol/g. For the same compound, the “Amount of Lactic acid in brain” value [5] was 4.62 µmol/g.

With `CC[C@]12CCCN3CCc4c(n(c5ccccc45)C(=NOCCN(C)C)C1)[C@@H]32` [Example 3, (3α,16α)-eburnamenin-14(15H)-one O-[2-(N,N-dimethylamino)ethyl]oxime] the “Reduction Rate in Filtering Pressure” value [1] was 10.2%, the “Reduction ratio, time to appear spontaneous motion” value (d,d-mice) was -11.3% and the “Reduction ratio, time to recover sit-up reflex” value (d,d-mice) was -33.0%. For the same compound, the inhibition at 10 µg/mL [2] was 3.2%, the LD50 at 72 h (in vivo) was 700 mg/kg and the “Increase in Blood Flow” value [3] was 247.3%. The inhibition at 10 µg/mL [4] was 5%, the “Amount of ATP in brain” value [5] was 0.18 µmol/g and the Amount of Glucose in brain [5] was 740 nmol/g. The “Amount of Lactic acid in brain” value [5] was 7.01 µmol/g.

For `CC[C@]12CCCN3CCc4c(n(c5ccccc45)C(=NOCCN4CCCC4)C1)[C@@H]32` [Example 4, (3α,16α)-eburnamenin-14(15H)-one O-[2-(1-pyrrolidinyl)ethyl]oxime], the “Reduction Rate in Filtering Pressure” value [1] was 9.3%, the “Reduction ratio, time to appear spontaneous motion” value (d,d-mice) was -71.6% and the “Reduction ratio, time to recover sit-up reflex” value (d,d-mice) was -96.1%. The inhibition at 10 µg/mL [2] was 4.4%, the LD50 at 72 h (in vivo) was 532 mg/kg and the “Increase in Blood Flow” value [3] was 260.6%. For the same compound, the inhibition at 10 µg/mL [4] was -10%, the “Amount of ATP in brain” value [5] was 0.25 µmol/g and the Amount of Glucose in brain [5] was 896 nmol/g. The “Amount of Lactic acid in brain” value [5] was 6.34 µmol/g.

For `CC[C@]12CCCN3CCc4c(n(c5ccccc45)C(=NOCCN4CCN(c5ccccc5OC)CC4)C1)[C@@H]32` [Example 5, (3α,16α)-eburnamenin 14(15H)-one O-{2-[4-(2-methoxyphenyl)-1-piperazinyl]ethyl}oxime], the “Reduction Rate in Filtering Pressure” value [1] was 13.2%, the “Reduction ratio, time to appear spontaneous motion” value (d,d-mice) was 6.9% and the “Reduction ratio, time to recover sit-up reflex” value (d,d-mice) was 0.4%. The inhibition at 10 µg/mL [2] was 9.3%, the LD50 at 72 h (in vivo) was 660 mg/kg and the “Increase in Blood Flow” value [3] was 179.3%. For the same compound, the inhibition at 10 µg/mL [4] was 5.5%, the “Amount of ATP in brain” value [5] was 0.28 µmol/g and the Amount of Glucose in brain [5] was 802 nmol/g. The “Amount of Lactic acid in brain” value [5] was 5.50 µmol/g.

For `CC[C@]12CCCN3CCc4c(n(c5ccccc45)C(=NOCC(O)CN4CCN(c5ccccc5OC)CC4)C1)[C@@H]32` (stereo partly drawn) [Example 6, (3α,16α)-eburnamenin-14(15H)-one O-{2-hydroxy-3-[4-(2-methoxyphenyl)-1-piperazinyl]propyl}oxime], the “Reduction Rate in Filtering Pressure” value [1] was 35.1%, the “Reduction ratio, time to appear spontaneous motion” value (d,d-mice) was 47.2% and the “Reduction ratio, time to recover sit-up reflex” value (d,d-mice) was 23.5%. The inhibition at 10 µg/mL [2] was 9.5%, the LD50 at 72 h (in vivo) was 560 mg/kg and the “Increase in Blood Flow” value [3] was 357.7%. For the same compound, the inhibition at 10 µg/mL [4] was 6.3%, the “Amount of ATP in brain” value [5] was 0.32 µmol/g and the Amount of Glucose in brain [5] was 1010 nmol/g. For the same compound, the “Amount of Lactic acid in brain” value [5] was 4.95 µmol/g.

In the case of `CC[C@]12CCCN3CCc4c(n(c5ccccc45)C(=NO)C1)[C@@H]32` [Reference Example, (3α,16α)-eburnamenin-14(15H)-one oxime], the “Reduction Rate in Filtering Pressure” value [1] is reported as 8.3%, the “Reduction ratio, time to appear spontaneous motion” value (d,d-mice) is reported as -5.3% and the “Reduction ratio, time to recover sit-up reflex” value (d,d-mice) is reported as -12.4%. The inhibition at 10 µg/mL [2] was 5.4%, the LD50 at 72 h (in vivo) was 510 mg/kg and the “Increase in Blood Flow” value [3] was 144.9%. The inhibition at 10 µg/mL [4] was -1.2%, the “Amount of ATP in brain” value [5] was 0.20 µmol/g and the Amount of Glucose in brain [5] was 592 nmol/g. The “Amount of Lactic acid in brain” value [5] was 7.10 µmol/g.

In the case of `CCOC(=O)C1=C[C@]2(CC)CCCN3CCc4c(n1c1ccccc41)[C@@H]32` [vinpocetine, reference compound], the “Reduction Rate in Filtering Pressure” value [1] is reported as 46.3%, the inhibition at 10 µg/mL [2] is reported as 4% and the “Increase in Blood Flow” value [3] is reported as 261.4%. For the same compound, the inhibition at 10 µg/mL [4] was -0.2%, the “Amount of ATP in brain” value [5] was 0.36 µmol/g and the Amount of Glucose in brain [5] was 1120 nmol/g. For the same compound, the “Amount of Lactic acid in brain” value [5] was 7.00 µmol/g.
